Measurements from patent US4473573A, “N-(2-methoxyethyl)-noroxymorphone and pharmaceutical compositions for relieving pain containing same” (Boehringer Ingelheim KG, priority 1982, dated 1984).
Where a name gives a salt, the structure may show the parent alone. Read-outs that look alike come from different tables or passages of the source.

Assays:
[1] = tested on: mice; assay: inhibition of locomotion (sedation); format: in vivo; conditions: up to 100 mg/kg for Formula I, comparison substances in or near the therapeutic dosage range
Description: Another advantage of the compound of Formula I over newer substances, not yet used therapeutically, selected from the opioid kappa agonists of the benzomorphane series, to which a high therapeutic range is also ascribed (for example, 1800 for ethylketazocine), is the absence of any strong sedation. This can be recognized in the comparison substances as an inhibition of locomotion in mice in or near the therapeutic dosage range. In the compound of Formula I, however, this effect was not observed in the range tested up to very high doses of 100 mg/kg.

[2] = tested on: morphine-dependent monkeys; assay: withdrawal test in morphine-dependent monkeys; format: in vivo
Description: (§1) The non-morphine-like activity profile can be recognized from the absence of typical side effects produced by opiates.
In morphine-dependent monkeys there is found to be increased sensitivity of morphine antagonists which trigger withdrawal symptoms, dependent upon dosage.

[3] = acute toxicity (LD50); conditions: mouse, in vivo, sc; s. c., mice
Description: (§2) The comparison values are 1600 for the standard analgesic morphine and 169 for the agonist-antagonist pentazocine which is used therapeutically as an analgesic.

[4] = writhing test (analgesic property); format: in vivo; conditions: s. c.; for ED50: sc
[5] = tested on: analgesia produced by morphine; assay: Haffner test, reversal of the analgesia produced by morphine; format: in vivo; conditions: s. c.; for ED50: sc, read-out: AD50, Haffner test
[6] = tested on: mice; assay: therapeutic range based upon the effect in the writhing test; format: in vivo; conditions: LD50 s. c. based upon the effect in the writhing test
Description: as §2

[7] = activity compared with the compound of Formula I (test not named); conditions: for activity relative to the compound of Formula I: compound of Formula I = 1; for effect of etherification of the phenolic hydroxy group on activity: compared with Formula I
[8] = Straub morphine tail phenomenon / compulsive circular motion (typical opiate side effects); format: in vivo; conditions: hydrochloride
Description: as §1

[9] = tested on: mice; conditions: ascribed; opioid kappa agonist of the benzomorphane series; cited from earlier work
[10] = cited from earlier work

## COCCN1CC[C@]23c4c5ccc(O)c4O[C@H]2C(=O)CC[C@@]3(O)[C@H]1C5 [Formula I, N-(2-methoxyethyl)-noroxymorphone]
[1]
  inhibition of locomotion (strong sedation): not observed
[2]; morphine-dependent monkeys, triggering of withdrawal symptoms
  antagonist strength compared with naloxone: as strong as naloxone
[3]
  LD50: 1350 mg/kg
[4]; relative to morphine
  times stronger than morphine, writhing test: about 36 times
[4]; relative to oxymorphone
  times stronger than oxymorphone, writhing test: about 2.5 times
[4]
  ED50: 0.013 mg/kg
[5]; Haffner test, naloxone = 1
  antagonistic activity relative to naloxone: about 1/10
[5]
  ED50: 0.3 mg/kg
[6]
  therapeutic range: 103,846

## CCOCCN1CC[C@]23c4c5ccc(O)c4O[C@H]2C(=O)CC[C@@]3(O)[C@H]1C5 [Formula IIIa]
[7]
  activity relative to the compound of Formula I: 1/20

## COCCN1CC[C@]23c4c5ccc(OC)c4O[C@H]2C(=O)CC[C@@]3(O)[C@H]1C5 [Formula IIIb]
[7]
  effect of etherification of the phenolic hydroxy group on activity: reduces the activity
  activity relative to the compound of Formula I: 1/84

## CCOCCN1CC[C@]23c4c5ccc(OC)c4O[C@H]2C(=O)CC[C@@]3(O)[C@H]1C5 [Formula IIIc]
[7]
  effect of etherification of the phenolic hydroxy group on activity: reduces the activity

## COCCCN1CC[C@]23c4c5ccc(O)c4O[C@H]2C(=O)CC[C@@]3(O)[C@H]1C5 [Formula IIId]
[7]
  activity relative to the compound of Formula I: 1/25

## COCCN1CC[C@]23c4c5ccc(O)c4O[C@H]2C(=O)CC[C@@]3(O)[C@H]1C5 [N-(2-methoxyethyl)-noroxymorphone hydrochloride]
[2]; after morphine has been withdrawn, hydrochloride
  relieving the withdrawal symptoms in morphine-dependent monkeys: not capable of relieving the withdrawal symptoms
[2]; morphine-dependent monkeys, hydrochloride
  effect on withdrawal symptoms (antagonist behaviour): aggravates the withdrawal symptoms
[8]
  Straub morphine tail phenomenon: does not show
  compulsive circular motion: does not show

## CC[C@]12CCN(CC3CC3)[C@H](C(=O)c3ccc(O)cc31)[C@@H]2C [ethylketazocine]
[9]
  therapeutic range: 1800

## CN1CC[C@]23c4c5ccc(O)c4O[C@H]2[C@@H](O)C=C[C@H]3[C@H]1C5 [morphine, reference compound]
[4]
  ED50, writhing test: 0.47 mg/kg
[6]
  therapeutic range: 1600

## C=CCN1CC[C@]23c4c5ccc(O)c4O[C@H]2C(=O)CC[C@@]3(O)[C@H]1C5 [naloxone, reference compound]
[5]
  ED50: 0.03 mg/kg

## O=C1CC[C@@]2(O)[C@H]3Cc4ccc(O)c5c4[C@@]2(CCN3CC2CC2)[C@H]1O5 [naltrexone]
[10]; in vivo
  antagonist character: pure antagonists
[10]; pure antagonists
  analgesic activity: no analgesic activity

## CN1CC[C@]23c4c5ccc(O)c4O[C@H]2C(=O)CC[C@@]3(O)[C@H]1C5 [oxymorphone]
[4]
  ED50: 0.032 mg/kg

## CC(C)=CCN1CCC2(C)c3cc(O)ccc3CC1C2C (centres unmarked) [pentazocine]
[6]
  therapeutic range: 169
